Assay results from ChEMBL document CHEMBL1136131, “Synthesis of poly(ethylene glycol) with sulfadiazine and chlorambucil end groups and investigation of its antitumor activity” (Bioorg Med Chem Lett, 2003).

Test: Acute toxicity in mice
Details: mouse, in vivo

O=C(O)CCCc1ccc(N(CCCl)CCCl)cc1 [CHLORAMBUCIL]
LD50: 49.54 mg⁻¹ kg⁻¹
